Test results from PubChem BioAssay (NCI).
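Step 1: Grow cells in 96-well plates. Step 2: Expose to compound for 48 hours at 5 concentrations. Step 3: Interpolate endpoints linearly; if unreached, use highest concentration. At the GI50, growth is halved. TGI: concentration producing complete growth inhibition.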

How the values were obtained:
Assay in all cases: NCI tumour cell line growth inhibition, 48 h
[1] = system: COLO 205 colon
[2] = system: EKVX NSCLC
[3] = system: IGROV1 ovarian
[4] = system: KM12 colon
[5] = system: LOX IMVI melanoma
[6] = system: M14 melanoma
[7] = system: RXF 393 renal
[8] = system: SF-268 CNS
[9] = system: SF-539 CNS
[10] = system: UACC-257 melanoma

## O=C(N[C@H](c1ccc(Cl)c(Cl)c1)C1CNC1)c1ccc2cnccc2c1
[1]
  GI50: 2.96 µM
  TGI: 11.5 µM
[2]
  GI50: 3.15 µM
  TGI: 16.4 µM
[3]
  GI50: 1.93 µM
  TGI: 10.6 µM
[4]
  GI50: 2.34 µM
  TGI: 11.9 µM
[5]
  GI50: 3.42 µM
  TGI: 13.9 µM
[6]
  GI50: 4.18 µM
  TGI: 16.7 µM
[7]
  GI50: 0.68 µM
  TGI: 3.74 µM
[8]
  GI50: 2.56 µM
  TGI: 15.6 µM
[9]
  GI50: 1.71 µM
  TGI: 11.3 µM
[10]
  GI50: 5.18 µM
  TGI: 18.6 µM

## Cc1ccc(-n2c3c(c4c(CN5CCCCC5)c(O)ccc42)CCc2ccccc2C3=O)cc1
[1]
  GI50: > 100 µM
  TGI: > 100 µM
[2]
  GI50: > 100 µM
  TGI: > 100 µM
[3]
  GI50: 39.9 µM
  TGI: > 100 µM
[4]
  GI50: > 100 µM
  TGI: > 100 µM
[5]
  GI50: > 100 µM
  TGI: > 100 µM
[6]
  GI50: > 100 µM
  TGI: > 100 µM
[7]
  GI50: 24.7 µM
  TGI: > 100 µM
[8]
  GI50: > 100 µM
  TGI: > 100 µM
[9]
  GI50: 50 µM
  TGI: > 100 µM
[10]
  GI50: > 100 µM
  TGI: > 100 µM

## CC1=C(C(=O)Nc2cccc(C(F)(F)F)c2)C(c2ccc(O)cc2)C(C(=O)Nc2cccc(C(F)(F)F)c2)=C(C)N1
[1]
  TGI: 27 µM
[2]
  TGI: 58.6 µM
[3]
  TGI: 89.2 µM
[4]
  TGI: 33.2 µM
[5]
  TGI: 33.1 µM
[6]
  TGI: 35.5 µM
[7]
  TGI: 36.9 µM
[8]
  TGI: > 100 µM
[9]
  TGI: 60.5 µM
[10]
  TGI: 36 µM

## Nc1nc(N)c2cc(CNc3ccc(Cl)c(Cl)c3)ccc2n1
[1]
  GI50: 1.11 µM
  TGI: 2.33 µM
[2]
  GI50: 0.742 µM
  TGI: 2.18 µM
[3]
  GI50: 0.579 µM
  TGI: 1.92 µM
[4]
  GI50: 0.866 µM
  TGI: 2.13 µM
[5]
  GI50: 0.146 µM
  TGI: 1.55 µM
[6]
  GI50: 0.13 µM
  TGI: 1.7 µM
[7]
  GI50: 0.748 µM
  TGI: 2.18 µM
[8]
  GI50: 0.544 µM
  TGI: 1.85 µM
[9]
  GI50: 0.825 µM
  TGI: 2.13 µM
[10]
  GI50: 0.891 µM
  TGI: 2.24 µM

## COC(=O)[C@]12CC[C@@H](C)[C@H](C)[C@@H]1C1=CC[C@@H]3[C@@]4(C)C[C@@H](OC(=O)c5ccco5)[C@H](O)[C@@](C)(CO)[C@@H]4[C@H](O)C[C@@]3(C)[C@]1(C)CC2
[1]
  GI50: 1.82 µM
  TGI: 3.44 µM
[2]
  GI50: 2.78 µM
  TGI: 8.67 µM
[3]
  GI50: 2.42 µM
  TGI: 6.33 µM
[4]
  GI50: 2.62 µM
  TGI: 6.77 µM
[5]
  GI50: 1.68 µM
  TGI: 3.1 µM
[6]
  GI50: 2.26 µM
  TGI: 4.74 µM
[7]
  GI50: 1.66 µM
  TGI: 3.34 µM
[8]
  GI50: 3.26 µM
  TGI: 14.2 µM
[9]
  GI50: 2.28 µM
  TGI: 5.17 µM
[10]
  GI50: 2.87 µM
  TGI: 7.55 µM

## COc1cc2cc3c4c(cc(OC)c(OC)c4c2cc1OC)CCN3C(=O)CCCC(=O)O
[1]
  TGI: > 100 µM
[2]
  TGI: > 100 µM
[3]
  TGI: > 100 µM
[4]
  TGI: > 100 µM
[5]
  TGI: > 100 µM
[6]
  TGI: > 100 µM
[7]
  TGI: > 100 µM
[8]
  TGI: > 100 µM
[9]
  TGI: > 100 µM
[10]
  TGI: > 100 µM

## Nc1nnc2nc(CC(=O)/C=C/c3ccccc3)c(=O)[nH]n12
[1]
  TGI: > 100 µM
[2]
  TGI: > 100 µM
[3]
  TGI: > 100 µM
[4]
  TGI: > 100 µM
[5]
  TGI: > 100 µM
[6]
  TGI: > 100 µM
[7]
  TGI: > 100 µM
[8]
  TGI: > 100 µM
[9]
  TGI: > 100 µM
[10]
  TGI: > 100 µM

## C=CCN1C(=O)/C(=c2\sc3n(c2=O)C2C(NN=3)N(CC)C(=O)N2CC)c2ccccc21 (stereo unspecified)
[1]
  GI50: 0.549 µM
  TGI: > 20.4 µM
[2]
  GI50: 1.39 µM
  TGI: > 100 µM
[3]
  GI50: 0.978 µM
  TGI: > 100 µM
[4]
  GI50: 0.439 µM
  TGI: > 100 µM
[5]
  GI50: 0.698 µM
  TGI: > 100 µM
[6]
  GI50: 0.446 µM
  TGI: > 100 µM
[7]
  GI50: 0.328 µM
  TGI: 1.94 µM
[8]
  GI50: 1.26 µM
  TGI: > 100 µM
[9]
  GI50: 0.346 µM
  TGI: 2.87 µM
[10]
  TGI: > 100 µM

## CN(C)c1cccc(-c2cc(=O)c3ccccc3[nH]2)c1
[1]
  TGI: > 100 µM
[2]
  TGI: > 100 µM
[3]
  TGI: > 100 µM
[4]
  TGI: > 100 µM
[5]
  TGI: > 100 µM
[6]
  TGI: > 100 µM
[7]
  GI50: 35.4 µM
  TGI: > 100 µM
[8]
  GI50: 76.6 µM
  TGI: > 100 µM
[9]
  TGI: > 100 µM
[10]
  TGI: > 100 µM

## CCCCCCN(CCCCCC)CCCNc1nccc2ccccc12
[1]
  GI50: 1.48 µM
  TGI: 3.07 µM
[2]
  GI50: 2.65 µM
  TGI: 11.8 µM
[3]
  GI50: 1.89 µM
  TGI: 4.75 µM
[4]
  GI50: 1.81 µM
  TGI: 3.56 µM
[5]
  GI50: 1.43 µM
  TGI: 2.94 µM
[6]
  GI50: 1.42 µM
  TGI: 2.89 µM
[7]
  GI50: 1.82 µM
  TGI: 5.3 µM
[8]
  GI50: 2.53 µM
  TGI: 8.51 µM
[9]
  GI50: 1.94 µM
  TGI: 3.59 µM
[10]
  GI50: 1.84 µM
  TGI: 3.54 µM

## CC1C2Cc3ccc(O)cc3C1(C)CCN2C (stereo unspecified)
[1]
  TGI: > 100 µM
[2]
  TGI: > 100 µM
[3]
  TGI: > 100 µM
[4]
  TGI: > 100 µM
[5]
  TGI: > 100 µM
[6]
  TGI: > 100 µM
[7]
  TGI: > 100 µM
[8]
  TGI: > 100 µM
[9]
  TGI: > 100 µM
[10]
  TGI: > 100 µM

## CC(C)(O)[C@@H]1CCC(C)([C@H]2[C@@H](O)CC3(C)C4CC(OC5OC(CO)C(O)C(O)C5O)C5C(C)(C)[C@@H](OC6OCC(O)C(O)C6O)CC[C@@]56C[C@@]46CC[C@]23C)O1 (stereo partly specified)
[1]
  TGI: > 100 µM
[2]
  TGI: > 100 µM
[3]
  TGI: > 100 µM
[4]
  TGI: > 100 µM
[5]
  TGI: > 100 µM
[6]
  TGI: > 100 µM
[7]
  TGI: > 100 µM
[8]
  TGI: > 100 µM
[9]
  TGI: > 100 µM
[10]
  TGI: > 100 µM
